Measurements published in US7838674B2, “Tetracyclic lactame derivatives” (Novartis AG, priority 2007, dated 2010).
Structures can show the parent of a compound that is named as a salt.

target: T1, MAPKAPK2 enzyme (HIS-MK2, Invitrogen PV4019) (Homo sapiens, UniProt P49137); assay: Alternative MAPKAPK2 assay (Caliper microfluidic mobility shift, HSP27-peptide); format: biochemical; conditions: HIS-MK2 0.013 nM, ATP 10 μM, 60 min at 30° C.
T1 construct: His; purchased Invitrogen PV4019
T1 sequence (P49137 whole entry): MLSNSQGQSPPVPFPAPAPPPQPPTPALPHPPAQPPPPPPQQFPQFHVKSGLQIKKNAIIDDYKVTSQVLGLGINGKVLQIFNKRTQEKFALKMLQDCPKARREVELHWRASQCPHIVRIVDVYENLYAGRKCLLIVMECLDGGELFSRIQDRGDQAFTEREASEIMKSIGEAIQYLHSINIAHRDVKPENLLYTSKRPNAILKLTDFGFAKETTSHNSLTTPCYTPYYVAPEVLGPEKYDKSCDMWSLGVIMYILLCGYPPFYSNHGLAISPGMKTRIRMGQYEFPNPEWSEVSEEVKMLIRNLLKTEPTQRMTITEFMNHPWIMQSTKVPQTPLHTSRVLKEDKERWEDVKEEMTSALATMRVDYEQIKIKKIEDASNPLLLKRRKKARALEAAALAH

IC50 [nM] | Structure (SMILES)
20 | O=C1NCC2(CCC2)c2[nH]c3c(c21)CCc1cnc(-c2ccc(CN4CCOCC4)c(F)c2)cc1-3 [Example 298, 2-(3-Fluoro-4-morpholin-4-ylmethyl-phenyl)-10-spirocyclobutyl-5,6,8,9,10,11-exahydro-3,8,11-triaza-benzo[a]fluoren-7-one]
32 | Cn1c2c(c3c1-c1cc(-c4cncc(-c5ccccc5F)c4)ncc1CC3)C(=O)NC1(CNC1)C2 [Example 135, 2-(3-Amino-azetidin-3-ylmethyl)-8-[5-(2-fluoro-phenyl)-pyridin-3-yl]-1-methyl-4,5-dihydro-1H-pyrrolo[2,3-f]isoquinoline-3-carboxylic acid lactam hydrochloride]
9 | CN1CCN(c2ccc(-c3cc4c(cn3)CCc3c-4[nH]c4c3C(=O)NC3(CC3)C4)cc2C#N)CC1 [Example 321, 2-(4-Methyl-piperazin-1-yl)-9-spirocyclopropyl-5-(7-oxo-6,7,8,9,10,11-hexahydro-5H-3,8,11-triaza-benzo[a]fluoren-2-yl)-benzonitrile]
< 3 | CCN1CC2(CNC(=O)c3c2[nH]c2c3CCc3cnc(-c4cccc(C(=O)NCc5ccccc5)c4)cc3-2)C1 [Example 263, 2-(3-Aminomethyl-1-ethyl-azetidin-3-yl)-8-(3-benzylcarbamoyl-phenyl)-4,5-dihydro-1H-pyrrolo[2,3-f]isoquinoline-3-carboxylic acid lactam]
18 | O=C1NC2(CC2)Cc2[nH]c3c(c21)CCc1cnc(-c2ccc(N4CCNCC4)cc2)cc1-3 [Example 216, 2-(1-Amino-cyclopropylmethyl)-8-(4-piperazin-1-yl-phenyl)-4,5-dihydro-1H-pyrrolo[2,3-f]isoquinoline-3-carboxylic acid lactam hydrochloride]
19 | CN1CC2(C1)c1[nH]c3c(c1C(=O)NC21CC1)CCc1cnc(-c2cccc(F)c2)nc1-3 [Example 213, 2-[3-(1-Amino-cyclopropyl)-1-methyl-azetidin-3-yl]-8-(3-fluoro-phenyl)-4,5-dihydro-1H-1,7,9-triaza-cyclopenta[a]naphthalene-3-carboxylic acid lactam]
30 | COc1ccc(-c2ncc3c(n2)-c2c(c4c(n2C)C2(CNC2)CNC4=O)CC3)cc1 [Example 218, 2-(3-Aminomethyl-azetidin-3-yl)-8-(4-methoxy-phenyl)-1-methyl-4,5-dihydro-1H-1,7,9-triaza-cyclopenta[a]naphthalene-3-carboxylic acid lactam hydrochloride]
79 | COCCN1CC2(CNC(=O)c3c2[nH]c2c3CCc3cnc(-c4cccc(Cl)c4)cc3-2)C1 [Example 181, 2-[3-Aminomethyl-1-(2-methoxy-ethyl)-azetidin-3-yl]-8-(3-chloro-phenyl)-4,5-dihydro-1H-pyrrolo[2,3-f]isoquinoline-3-carboxylic acid lactam]
13 | CCOc1ccc(-c2ncc3c(n2)-c2c(c4c(n2C)CC2(CNC2)NC4=O)CC3)cc1 [Example 59, 2-(3-Amino-azetidin-3-ylmethyl)-8-(4-ethoxyphenyl)-1-methyl-4,5-dihydro-1H-1,7,9-triaza-cyclopenta[a]naphthalene-3-carboxylic acid lactam hydrochloride]
18 | Cn1c2c(c3c1-c1nc(-c4ccc(Br)cc4)ncc1CC3)C(=O)NC1(CNC1)C2 [Example 139, 2-(3-Amino-azetidin-3-ylmethyl)-8-(4-bromo-phenyl)-1-methyl-4,5-dihydro-1H-1,7,9-triaza-cyclopenta[a]naphthalene-3-carboxylic acid lactam hydrochloride]
20 | O=C1NC2(CC2)C2(CC2)c2[nH]c3c(c21)CCc1cnc(-c2ccc(OC4CCOCC4)nc2)cc1-3 [Example 198, 2-(1′-Amino-bicyclopropyl-1-yl)-8-[6-(tetrahydro-pyran-4-yloxy)-pyridin-3-yl]-4,5-dihydro-1H-pyrrolo[2,3-f]isoquinoline-3-carboxylic acid lactam]
49 | COc1cccc(-c2ncc3c(n2)-c2c(c4c(n2C)CC2(CNC2)NC4=O)CC3)c1 [Example 137, 2-(3-Amino-azetidin-3-ylmethyl)-8-(3-methoxy-phenyl)-1-methyl-4,5-dihydro-1H-1,7,9-triaza-cyclopenta[a]naphthalene-3-carboxylic acid lactam hydrochloride]
< 3 | CCN1CC2(C1)c1[nH]c3c(c1C(=O)NC21CC1)CCc1cnc(-c2ccc(OC(C)C)nc2)cc1-3 [Example 250]
45 | CN1CC2(C1)c1c(c3c(n1C)-c1cc(-c4cccc(F)c4)ncc1CC3)C(=O)NC21CC1 [Example 210, 2-[3-(1-Amino-cyclopropyl)-1-methyl-azetidin-3-yl]-8-(3-fluoro-phenyl)-1-methyl-4,5-dihydro-1H-pyrrolo[2,3-f]isoquinoline-3-carboxylic acid lactam]
7 | CN1CC2(C1)c1[nH]c3c(c1C(=O)NC21CC1)CCc1cnc(-c2ccc(OCCN4CCOCC4)cc2)nc1-3 [Example 227, 2-[3-(1-Amino-cyclopropyl)-1-methyl-azetidin-3-yl]-8-[4-(2-morpholin-4-yl-ethoxy)-phenyl]-4,5-dihydro-1H-1,7,9-triaza-cyclopenta[a]naphthalene-3-carboxylic acid lactam]
< 3 | CN1CC2(CNC(=O)c3c2[nH]c2c3CCc3cnc(-c4cccc(C(=O)NCc5ccccc5)c4)cc3-2)C1 [Example 262, 2-(3-Aminomethyl-1-methyl-azetidin-3-yl)-8-(3-benzylcarbamoyl-phenyl)-4,5-dihydro-1H-pyrrolo[2,3-f]isoquinoline-3-carboxylic acid lactam]
49 | CN(C)c1ccc(-c2cc3c(cn2)CCc2c-3[nH]c3c2C(=O)NC2(CC2)C3)cn1 [Example 68, 2-(1-Amino-cyclopropylmethyl)-8-6-dimethylamino-pyridin-3-yl-4,5-dihydro-1H-pyrrolo[2,3-f]isoquinoline-3-carboxylic acid lactam]
11 | COc1cncc(-c2cc3c(cn2)CCc2c-3[nH]c3c2C(=O)NCC32CC2)c1 [Example 55, 2-(1-Aminomethyl-cyclopropyl)-8-(5-methoxy-pyridin-3-yl)-4,5-dihydro-1H-pyrrolo[2,3-f]isoquinoline-3-carboxylic acid lactam]
22 | O=C1NC2(CC2)Cc2[nH]c3c(c21)CCc1cnc(-c2ccc(N4CCOCC4)nc2)cc1-3 [Example 236, 2-(1-Amino-cyclopropylmethyl)-8-(6-morpholin-4-yl-pyridin-3-yl)-4,5-dihydro-1H-pyrrolo[2,3-f]isoquinoline-3-carboxylic acid lactam]
22 | COc1ccc(-c2cc3c(cn2)CCc2c-3[nH]c3c2C(=O)NCC32CC2)cn1 [Example 54, 2-(1-Aminomethyl-cyclopropyl)-8-(6-methoxy-pyridin-3-yl)-4,5-dihydro-1H-pyrrolo[2,3-f]isoquinoline-3-carboxylic acid lactam]
18 | COc1ccc(-c2ncc3c(n2)-c2[nH]c4c(c2CC3)C(=O)NC2(CC2)C42CN(C)C2)cc1 [Example 215, 2-[3-(1-Amino-cyclopropyl)-1-methyl-azetidin-3-yl]-8-(4-methoxy-phenyl)-4,5-dihydro-1H-1,7,9-triaza-cyclopenta[a]naphthalene-3-carboxylic acid lactam]
38 | N#Cc1cc(-c2cc3c(cn2)CCc2c-3[nH]c3c2C(=O)NCC32CC2)ccc1CN1CCOCC1 [Example 319, 2-Morpholin-4-ylmethyl-10-spirocyclopropyl-5-(7-oxo-6,7,8,9,10,11-hexahydro-5H-3,8,11-triaza-benzo[a]fluoren-2-yl)-benzonitrile]
51 | CN1CCN(c2c(F)cc(-c3cc4c(cn3)CCc3c-4[nH]c4c3C(=O)NCC43CC3)cc2C#N)CC1 [Example 317, 3-Fluoro-2-(4-methyl-piperazin-1-yl)-10-spirocyclopropyl-5-(7-oxo-6,7,8,9,10,11-hexahydro-5H-3,8,11-triaza-benzo[a]fluoren-2-yl)-benzonitrile]
98 | COc1ncc(-c2cc3c(cn2)CCc2c-3[nH]c3c2C(=O)NC2(CC2)C3)s1 [Example 283, 2-(1-Amino-cyclopropylmethyl)-8-(2-methoxy-5-thiazolyl)-4,5-dihydro-1H-pyrrolo[2,3-f]isoquinoline-3-carboxylic acid lactam]
85 | CC(C)(O)CCc1ccc(-c2cc3c(cn2)CCc2c-3[nH]c3c2C(=O)NC2(CC2)C3)cc1 [Example 77, 2-(1-Amino-cyclopropylmethyl)-8-[4-(3-hydroxy-3-methyl-butyl)-phenyl]-4,5-dihydro-1H-pyrrolo[2,3-f]isoquinoline-3-carboxylic acid lactam]
55 | O=C1NCC2(CC2)c2[nH]c3c(c21)CCc1cnc(-c2ccncc2)cc1-3 [Example 124, 2-(1-Aminomethyl-cyclopropyl)-8-pyridin-4-yl-4,5-dihydro-1H-pyrrolo[2,3-f]isoquinoline-3-carboxylic acid lactam]
< 3 | CN1CC2(C1)c1[nH]c3c(c1C(=O)NC21CC1)CCc1cnc(-c2ccc(C(F)(F)F)nc2)cc1-3 [Example 222, 2-[3-(1-Amino-cyclopropyl)-1-methyl-azetidin-3-yl]-8-(6-trifluoromethyl-pyridin-3-yl)-4,5-dihydro-1H-pyrrolo[2,3-f]isoquinoline-3-carboxylic acid lactam]
20 | COc1ccc(-c2cc3c(cn2)CCc2c4c(n(C)c2-3)CC2(CNC2)NC4=O)cc1 [Example 38, 2-(3-Amino-azetidin-3-ylmethyl)-8-(4-methoxy-phenyl)-1-methyl-4,5-dihydro-1H-pyrrolo[2,3-f]isoquinoline-3-carboxylic acid lactam hydrochloride]
23 | Cn1c2c(c3c1-c1cc(-c4cncc(-c5ccc(F)cc5)c4)ncc1CC3)C(=O)NC1(CNC1)C2 [Example 136, 2-(3-Amino-azetidin-3-ylmethyl)-8-[5-(4-fluoro-phenyl)-pyridin-3-yl]-1-methyl-4,5-dihydro-1H-pyrrolo[2,3-f]isoquinoline-3-carboxylic acid lactam hydrochloride]
